Holding throughout (experiment): NCI anticancer screen, dose series, 48 h
Assay [1] concerns DU-145 prostate.
Assay [2] relates to HCC-2998 colon.
The subject of assay [3] is M14 melanoma.
Assay [4] relates to MALME-3M melanoma.
Assay [5] deals with OVCAR-8 ovarian.
For assay [6], the system named is SNB-19 CNS.
Assay [7] has as its system SW-620 colon.
Assay [8] relates to TK-10 renal.
In assay [9] the test system is UO-31 renal.
Assay [10] deals with NCI-H226 lung.

GI50 and TGI data for nine molecules are collected here from PubChem BioAssay (NCI).

“And” between values parts separate entries of the source, which are not always exact repeats. Equal entries are not always repeated.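 1) Cells in 96-well plates. 2) Compound, 48 h, 5 concentrations. 3) Linear interpolation between surrounding doses. 4) Unreached endpoint = highest concentration. GI50: concentration for 50% inhibition of growth. At the TGI there is no net growth.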 Bounds are passed on as bounds.

`CN1CCN(CCCOc2ccc3ncnc(Nc4ccc(Oc5cccc(F)c5)c(Cl)c4)c3c2)CC1`: the GI50 is 1.31 µM in assay [1]; 1640 nM in assay [2]; 1790 nM in [3]; 1560 nM in [4]; 2190 nM in [5]; 1640 nM in assay [6]. The GI50 was 1680 nM in assay [7], 1050 nM in assay [8] and 1110 nM in assay [9]. The TGI was 2.79 µM in [1]; 3.06 µM in assay [2]; 3.62 µM in [3]; 3.05 µM in [4]; 6.42 µM in [5]; 3.16 µM in assay [6]. For the same molecule, the TGI in assay [7] was 3.25 µM; in assay [8], 2.32 µM; in [9], 2.3 µM.

With `NCCn1c2c(c3ccccc3c1=O)C(=O)c1ccccc1-2`, the TGI is 2.58 µM in [1]; 1.64 µM in [2]; 3.2 µM in [4]; 3.02 µM in [10]; 1.57 µM in assay [5]; 2.09 µM in assay [6]. Besides, the TGI turned out to be 4.32 µM in assay [7], 3.64 µM in [8] and 5.33 µM in [9]. The GI50 in assay [2] is 329 nM; in assay [4] it was 577 nM; in assay [10], 0.452 µM; in [5], 91.5 nM; in assay [6], 251 nM; in assay [7], 147 nM. Besides, the figures for the GI50 in assay [8] and in assay [9] were 778 nM and 458 nM, respectively.

Turning to `O=C(O)C(O)c1ccc(F)cc1` (stereo not drawn), the TGI in assay [1], in assay [3], in assay [4], in assay [5], in [6] and in [7] was above 100 µM in each case. Besides, the TGI in assay [8] and in [9] was above 100 µM each time.

Take `Cc1nc2cc(Nc3nc(Nc4ccc(F)cc4)nc(-c4ccc(Cl)cc4)n3)ccc2n1Cc1ccccc1`: the GI50 was 23.4 µM in assay [1]; 6360 nM in assay [2]; 4420 nM in assay [3]; 5290 nM in [4]; 11.4 µM in [10]; 3930 nM in assay [5]. Besides, the GI50 in assay [6] is 9770 nM; in assay [7] it was 7550 nM; in assay [9] it was 3590 nM. The TGI in [1] was above 100 µM; in [2] it was above 100 µM; in [3], above 100 µM; in assay [4], 22.4 µM; in [10], 37.2 µM; in assay [5] it was 22 µM. The TGI in assay [6], in assay [7] and in assay [9] was above 100 µM in each case.

For the molecule `Cc1cc(S(N)(=O)=O)c(S/C(=N\NS(=O)(=O)c2ccccc2)c2ccc(Cl)c(Cl)c2)cc1Cl`, the GI50 is 54.2 µM in assay [1]; 92300 nM in assay [3]; 45.1 µM in [10]; 32300 nM in [5]; 78800 nM in assay [6]; 37300 nM in assay [7]. Also, the GI50 is 52000 nM in assay [8] and 54500 nM in assay [9]. Moreover, the TGI in assay [1], in assay [3], in assay [10], in [5], in [6] and in assay [7] was above 100 µM each time. The TGI in [8] and in assay [9] was above 100 µM in each case.

Turning to `N#CC1=C(N)Oc2c(sc3c(Br)cccc23)C1c1ccc(F)cc1` (stereo not drawn), the GI50 is 0.333 µM in [1]; 797 nM in [2]; 300 nM in assay [3]; 760 nM in assay [5]; 719 nM in assay [6]; 476 nM in assay [7]. Moreover, the GI50 in [8] was 436 nM; in [9] it was 515 nM. Further, the TGI came out at 10.6 µM in assay [1]; 10.1 µM in assay [2]; 14.9 µM in [3]; 24.4 µM in assay [5]; 25 µM in assay [6]; 34.6 µM in [7]. The TGI in [8] worked out at 15.8 µM; in assay [9] it was 20.1 µM.

`COc1cc2c(c(OC)c1OC)-c1ccc(SC)c(=O)cc1[C@@H](NC(=O)c1ccc(F)cc1)CC2`: the GI50 was below 10 nM in assay [2]; below 10 nM in assay [3]; below 10 nM in assay [4]; below 0.01 µM in assay [10]; below 10 nM in assay [5]; 28.7 nM and < 10 nM in assay [6]. In addition, the GI50 in [7] and in [8] was below 10 nM each time. For the same molecule, the TGI in assay [2] is 0.0572 µM and < 0.01 µM; in assay [3], 2.69 µM; in assay [4], 91.1 µM; in [10], 0.0744 µM and < 0.01 µM; in assay [5], 14.6 µM; in [7] it was above 100 µM. Also, the figures for the TGI in assay [8] and in assay [9] were 35.5 µM and 46.6 µM, respectively.

With `N#Cc1c(-c2ccc(Cl)cc2)csc1NC(=O)Nc1cccc(C(F)(F)F)c1`, the GI50 is 3.21 µM in [1]; 2750 nM in assay [2]; 2880 nM in assay [3]; 3.42 µM in assay [10]; 3390 nM in [6]; 3330 nM in [7]. For the same molecule, the GI50 in [8] was 2230 nM; in [9], 1800 nM. Also, the TGI in [1] worked out at 13.9 µM; in assay [2], 7.97 µM; in assay [3], 10.1 µM; in assay [10] it was 10.5 µM; in [6] it was 13.4 µM; in assay [7] it was 13.9 µM. The TGI was 8.95 µM in [8] and 5.48 µM in [9].

Take `CCOC(=O)/N=c1\ssc(Cl)c1Cl`: the GI50 in [1] is 4.72 µM; in assay [2], 2830 nM; in assay [3], 7440 nM; in [10] it was 27.8 µM; in [5], 19700 nM; in assay [6], 23700 nM. For the same molecule, the GI50 in assay [7] was 599 nM; in assay [8], 4720 nM; in [9] it was 4970 nM. The TGI in assay [1] is 19.4 µM; in [2] it was 5.39 µM; in assay [3], above 100 µM; in assay [10] it was above 100 µM; in assay [5], 55.1 µM; in [6], 56.9 µM. The figures for the TGI in assay [7], in [8] and in assay [9] were 14.7 µM, 18.5 µM and above 100 µM, respectively.
